Data as given in patent US6452005B1, “JAK-3 inhibitors for treating allergic disorders” (Parker Hughes Institute, priority 1999, dated 2002).

Tests used:
[1] = biological target: T1, human JAK3 (Homo sapiens, UniProt P52333); assay: JAK3 kinase inhibition (Table 1 IC50, immune complex kinase assay); type: biochemical; settings: Table 1; measured inhibition values for JAK3 kinase
T1 construct: KL-2 EBV-transformed human lymphoblastoid B cells (native JAK3 kinase assays); endogenous in cells; host or cells: KL-2 EBV-transformed human lymphoblastoid B cell line
T1 sequence (P52333 1-1124): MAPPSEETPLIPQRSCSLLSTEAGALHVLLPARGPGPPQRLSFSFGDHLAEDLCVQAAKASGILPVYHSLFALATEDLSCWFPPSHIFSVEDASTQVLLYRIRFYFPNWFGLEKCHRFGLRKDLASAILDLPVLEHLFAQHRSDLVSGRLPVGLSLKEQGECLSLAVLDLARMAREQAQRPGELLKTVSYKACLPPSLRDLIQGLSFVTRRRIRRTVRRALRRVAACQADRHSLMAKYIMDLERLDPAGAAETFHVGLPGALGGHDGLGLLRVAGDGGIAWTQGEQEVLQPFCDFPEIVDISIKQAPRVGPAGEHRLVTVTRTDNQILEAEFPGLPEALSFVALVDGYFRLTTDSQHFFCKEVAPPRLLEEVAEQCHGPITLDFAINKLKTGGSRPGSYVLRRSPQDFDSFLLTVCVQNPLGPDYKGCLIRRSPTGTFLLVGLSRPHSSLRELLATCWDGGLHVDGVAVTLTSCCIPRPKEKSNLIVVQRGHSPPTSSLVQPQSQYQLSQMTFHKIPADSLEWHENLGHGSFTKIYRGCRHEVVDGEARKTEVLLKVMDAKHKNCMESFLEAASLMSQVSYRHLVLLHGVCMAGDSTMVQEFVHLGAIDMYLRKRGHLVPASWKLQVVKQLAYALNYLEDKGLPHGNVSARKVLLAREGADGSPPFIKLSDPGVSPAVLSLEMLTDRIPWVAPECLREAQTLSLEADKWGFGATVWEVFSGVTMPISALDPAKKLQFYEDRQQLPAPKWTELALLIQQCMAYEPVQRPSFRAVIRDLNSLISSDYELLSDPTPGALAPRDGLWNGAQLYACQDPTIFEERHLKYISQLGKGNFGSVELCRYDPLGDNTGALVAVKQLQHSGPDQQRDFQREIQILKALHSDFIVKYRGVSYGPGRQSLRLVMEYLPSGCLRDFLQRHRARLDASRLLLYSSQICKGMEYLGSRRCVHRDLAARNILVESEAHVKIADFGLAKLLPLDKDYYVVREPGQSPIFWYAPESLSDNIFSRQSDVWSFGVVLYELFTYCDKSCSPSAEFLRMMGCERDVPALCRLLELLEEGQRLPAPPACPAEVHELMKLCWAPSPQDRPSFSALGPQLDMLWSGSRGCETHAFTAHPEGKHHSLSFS
Experimental: Immune Complex Kinase Assays.
KL-2 EBV-transformed human lymphoblastoid B cells (native JAK3 kinase assays) or insect ovary cells (recombinant JAK3 kinase assays) were lysed with NP-40 lysis buffer (50 mM Tris, pH 8, 150 mM NaCl, 5 mM EDTA, 1% NP-40, 100 μM sodium orthovanadate, 100 μM sodium molybdate, 8 μg/ml aprotinin, 5 μg/ml leupeptin, and 500 μM PMSF) and centrifuged 10 minutes at 13000×g to remove insoluble material. Samples were immunoprecipitated with antisera prepared against JAK3. The antisera were diluted and immune complexes collected by incubation with 15 μl protein A Sepharose. After 4 washes with NP-40 lysis buffer, the protein A Sepharose beads were washed once in kinase buffer (20 mM MOPS, pH 7.0, 10 mM MgCl2) and resuspended in the same buffer. Reactions were initiated by the addition of 25 μCi γ[^32P] ATP (5000 Ci/mMole) and unlabeled ATP to a final concentration of 5 μM. Reactions were terminated by boiling for 4 min in SDS sample buffer. Samples were run on 9.5% SDS polyacrylamide gels and labeled proteins will be detected by autoradiography. Following electrophoresis, kinase gels were dried onto Whatman 3M filter paper and subjected to phosphoimaging on a Molecular Imager (Bio-Rad, Hercules, Calif.) as well as autoradiography on film. For each drug concentration, a kinase activity index (KA) was determined by comparing the kinase activity in phosphorimager units (PIU) to that of the baseline sample. In some experiments, cold kinase assays were performed, as described (Uckun et. al., 1998, Clin. Cancer Res., 4:901-912).

[2] = tested on: RBL-2H3 mast cells; assay: IgE/antigen-induced degranulation and mediator release; type: cell-based, rat; settings: 1 h preincubation, DNP-BSA challenge; at ≧30 μM
Description: Vehicle treated control RBL-2H3 cells released 45.1±3.1% of their hexosaminidase contents after DNP-BSA challenge. […] Vehicle treated control cells released 11.3±1.3 pg LTC4, and 160±33.0 pg TNFα/10^6 mast cells. The results on LTC4 and TNFα release are expressed as percent of maximum control release from vehicle treated control mast cells. The data points represent the mean±SEM values obtained from 3-6 independent experiments. […] *P<0.05 and **P<0.0001 compared to control as determined by Student's t test.
Supernatants were removed and saved.

[3] = tested on: human mast cells; settings: IgE-sensitized, anti-IgE challenge, 30 minutes exposure
Experimental: Human Mast Cells: Cells from human fetal livers (16 to 21 weeks of gestational age) were cultured for 5 weeks in the presence of 50 ng/ml rhSCF, 2 ng/ml rhlL-4 (Xia et. al., 1997, J. Immunol., 159:2911-2921). Culture medium was replaced with fresh medium once a week for the first 2 weeks and twice a week thereafter. At the end of the 5 weeks, the fetal liver derived cell cultures contained>70% mast cells, based on tryptase staining (Irani et. al., 1989, J. Histochem. Cytochem, 37:1509-1515).
Fetal liver derived human mast cells were resuspended in tyrode buffer containing calcium and magnesium and challenged with anti-FcεRI antibody 22E7 for 15 minutes. […]
Leukotriene (LT) C4 levels were estimated in cell free supernatants by immunoassay (Malaviya et. al., 1993, J. Biol. Chem., 268:4939-4944). […] Tryptase levels were quantitated in cell free supernatants and pellets of fetal liver derived human mast cells as has been described in detail (Xia et. al., 1997, J. Immunol., 159:2911-2921).
Fetal liver derived human mast cells were cultured in presence of SCF and IL-4 for 5 weeks. […] The FcεRI receptors of fetal liver derived human mast cells were crosslinked with anti-IgE and the resulting mast cell degranulation (i.e., β-tryptase) (Xia et. al., 1997, J. Immunol., 159:2911-2921) and LTC4 release (Malaviya et. al., 1993, J. Biol. Chem., 268:4939-4944) were quantitated.

[4] = tested on: BALB/c mice; assay: Toxicity studies in mice; type: in vivo
Experimental: Toxicity Studies in Mice. […] Female BALB/c mice were used and monitored daily for lethargy, cleanliness and morbidity. At the time of death, necropsies were performed and the toxic effects of WHI-P131 administration were assessed. For histopathologic studies, tissues were fixed in 10% neutral buffered formalin, dehydrated, and embedded in paraffin by routine methods. Glass slides with affixed 6 micron tissue sections were prepared and stained with Hemotoxylin and Eosin (H&E). Female BALB/c mice were administered an i.p. bolus injection of WHI-P131 in 0.2 ml PBS supplemented with 10% DMSO, or 0.2 ml PBS supplemented with 10% DMSO alone (control mice). No sedation or anesthesia was used throughout the treatment period. Mice were monitored daily for mortality for determination of the day 30 LD50 values. Mice surviving until the end of the 30 days monitoring were sacrificed and the tissues were immediately collected from randomly selected mice, and preserved in 10% neutral buffered formalin. Standard tissues collected for histologic evaluation included: bone, bone marrow, brain, cecum, heart, kidney, large intestine, liver, lung, lymph node, ovary, pancreas, skeletal muscle, skin, small intestine, spleen, stomach, thymus, thyroid gland, urinary bladder, and uterus (as available).

## COc1cc2ncnc(Nc3ccc(O)cc3)c2cc1OC [WHI-P131, 4-(4′-Hydroxylphenyl)-amino-6,7-dimethoxyquinazoline]
[1]
  IC50: 78 µM
[2]
  LTC4 release: near to complete inhibition
  TNFα release: near to complete inhibition
  β-hexosaminidase release (degranulation): near to complete inhibition
[3]
  release of LTC4: inhibited
  release of β-tryptase: inhibited
[4]; i.p. single bolus 0.5 mg/kg to 250 mg/kg, 30 day observation
  toxicity: not toxic
[4]; i.p. single bolus, mice
  maximum tolerated dose (MTD): > 250 mg/kg
[4]; mice killed at 30 days
  histopathologic lesions in organs: No histopathologic lesions
[4]; tested dose levels, mice
  hematologic side effects (neutropenia, lymphopenia, anemia): no hematologic side effects
